Laboratory results reported in patent publication US11390617B2, “Methods of treating non-Hodgkin lymphoma using 2-(2,6-dioxopiperidin-3-yl)-4-((2-fluoro-4-((3-morpholinoazetidin-1-yl)methyl)benzyl)amino)isoindoline-1,3-dione” (Celgene Corporation, priority 2019, dated 2022).

Assays:
Experiment in all cases: NHL cell line viability/apoptosis 384-well flow cytometry assay
Type in all cases: cell-based
OCI-LY10 = OCI-LY10 (DLBCL), 120 hours
Procedure: (§1) The following exemplary anti-proliferative assay uses exemplary non-Hodgkin lymphoma (NIL) cell lines (including diffuse large B-cell lymphoma (DLBCL), follicular lymphoma (FL), and mantle cell lymphoma (MCL)) (Table 5). The in vitro growth inhibitory activity of Compound 1 described herein was evaluated using a 384-well flow cytometry assay.
(§2) The cell lines in Table 5 were plated in 384-well flat bottom plates and assessed with increasing concentrations of compound ranging from 0.00015 to 10 μM or dimethyl sulfoxide (DMSO) control. The final concentration of DMSO was 0.1% (v/v). Following the addition of Compound 1 or DMSO and incubation for 120 hours, cell number and cell death were analyzed by flow cytometry (Attune®, Thermo Fisher) using Annexin V and the live-cell impermeant DNA dye, DRAQ7. Phosphatidylserine translocates from the inner layer to the outer layer of the cell membrane early in apoptosis and Annexin V binds to the exposed phosphatidylserine found on the surface of an apoptotic cell. The vital dye DRAQ7 is excluded by intact live cells and only stains cells that have died as a result of apoptosis or necrosis.
(§3) Flow cytometry data analysis was then performed using the Flow Jo_v10 software to determine the number of viable cells (Annexin V and DRAQ7 double negative staining cells) and percentage of apoptotic cells (Annexin V positive cells) for each condition. The live cell count for every concentration was normalized to the DMSO control (considered as 100%) to calculate the percentage of viable cells remaining after treatment and graphed using GraphPad Prism 7.03. The IC50 (50% inhibitory concentration) and Emax (maximum efficacy achieved) values were then calculated by performing nonlinear regression curve fitting using log(inhibitor) vs. normalized response—variable slope analysis on GraphPad Prism 7.03. Area under the curve (AUC) was calculated by performing area under curve analysis on GraphPad Prism 7.03. Similarly, for apoptosis analysis, the percentage of apoptosis combining both “early” (Annexin V positive and DRAQ7 negative) and “late” apoptosis (Annexin V and DRAQ7 positive) cell gates relative to DMSO was graphed using GraphPad Prism 7.03. The AUC, EC50 (concentration of Compound 1 that produces half-maximal apoptosis response) and Ymax (maximal percentage of apoptosis achieved) values from apoptosis curves were calculated by performing area under curve analysis and nonlinear regression curve fitting using log(agonist) vs. normalized response—Variable slope analysis on GraphPad Prism 7.03.
(§4) In Table 6, dose-response proliferation curves for the panel of NHL cell lines and non-linear curve-fit regression were used to determine IC50, AUC, and Emax for % viable cells (Emax for viability varies between 100 at low doses and 0 at high doses, which corresponds to inhibition of all viable cells), and dose-response apoptosis curves were used to determine the EC50, AUC, and Ymax for % apoptosis (Ymax for apoptosis varies from 0 at low doses and 100 at higher doses which corresponds to death of all cells). Tumor cells were exposed to serial dilutions (0.00015 to 10 μM) of Compound 1 or dimethyl sulfoxide (DMSO) control for 5 days. Viability and apoptosis for all cell lines was determined by Annexin V/[…] flow cytometry.

DOHH2 = DOHH2 (FL), 120 hours
Procedure: as §1, §2, §3, §4

Mino = Mino (MCL), 120 hours
Procedure: as §1, §2, §3, §4

TMD8 = TMD8 (DLBCL), 120 hours
Procedure: as §1, §2, §3, §4

SU-DHL-4 = SU-DHL-4 (DLBCL), 120 hours
Procedure: as §1, §2, §3, §4

ROS-50 = ROS-50 (DLBCL), 120 hours
Procedure: as §1, §2, §3, §4

SU-DHL-2 = SU-DHL-2 (DLBCL), 120 hours
Procedure: as §1, §2, §3, §4

U-2932 = U-2932 (DLBCL), 120 hours
Procedure: as §1, §2, §3, §4

Rec-1 = Rec-1 (MCL), 120 hours
Procedure: as §1, §2, §3, §4

ULA = ULA (DLBCL), 120 hours
Procedure: as §1, §2, §3, §4

SU-DHL-16 = SU-DHL-16 (DLBCL), 120 hours
Procedure: as §1, §2, §3, §4

OCI-LY18 = OCI-LY18 (DLBCL), 120 hours
Procedure: as §1, §2, §3, §4

[1] = Homo sapiens, read-out: IC50 (% Viable Cells)
[2] = read-out: IC50 (% Viable Cells)

O=C1CC[C@H](N2C(=O)c3cccc(NCc4ccc(CN5CC(N6CCOCC6)C5)cc4F)c3C2=O)C(=O)N1 [Compound 1, (S)-2-(2,6-dioxopiperidin-3-yl)-4-((2-fluoro-4-((3-morpholinoazetidin-1-yl)methyl)benzyl)amino)isoindoline-1,3-dione]
EC50 (OCI-LY10; Homo sapiens): 320 nM | IC50 (OCI-LY10; [1]): 14.2 nM | AUC (% Viable Cells) (OCI-LY10): 125.3 | AUC (Apoptosis) (OCI-LY10): 188.9 | Emax (% Viable Cells) (OCI-LY10): 10.16% | Ymax (Apoptosis) (OCI-LY10): 22.31% | AUC (% Viable Cells) (DOHH2): 6.902 | AUC (Apoptosis) (DOHH2): 923.9 | Emax (% Viable Cells) (DOHH2): 0.2066% | Ymax (Apoptosis) (DOHH2): 95.1% | EC50 (DOHH2; Homo sapiens, DOHH-2): 17.5 nM | IC50 (DOHH2; Homo sapiens, DOHH-2, read-out: IC50 (% Viable Cells)): 2.8 nM | EC50 (Mino; Homo sapiens): 2.05 nM | IC50 (Mino; [1]): 5.78 nM | AUC (% Viable Cells) (Mino): 62.67 | AUC (Apoptosis) (Mino): 968.2 | Emax (% Viable Cells) (Mino): 5.638% | Ymax (Apoptosis) (Mino): 97.04% | EC50 (TMD8; Homo sapiens): 6.17 nM | IC50 (TMD8; [1]): 2.46 nM | AUC (% Viable Cells) (TMD8): 4.187 | AUC (Apoptosis) (TMD8): 963.3 | Emax (% Viable Cells) (TMD8): 0.245% | Ymax (Apoptosis) (TMD8): 97.2% | EC50 (SU-DHL-4; Homo sapiens): 782 nM | IC50 (SU-DHL-4; [1]): 278 nM | AUC (% Viable Cells) (SU-DHL-4): 296.2 | AUC (Apoptosis) (SU-DHL-4): 209 | Emax (% Viable Cells) (SU-DHL-4): 23.44% | Ymax (Apoptosis) (SU-DHL-4): 25.33% | AUC (% Viable Cells) (ROS-50): 762.1 | AUC (Apoptosis) (ROS-50): 87.92 | EC50 (ROS-50): 335 nM | Emax (% Viable Cells) (ROS-50): 65.57% | Ymax (Apoptosis) (ROS-50): 10.9% | IC50 (ROS-50; [2]): ≥ 10000 nM | EC50 (SU-DHL-2; Homo sapiens): 6.24 nM | IC50 (SU-DHL-2; [1]): 1.26 nM | AUC (% Viable Cells) (SU-DHL-2): 5.586 | AUC (Apoptosis) (SU-DHL-2): 928.4 | Emax (% Viable Cells) (SU-DHL-2): 0.2145% | Ymax (Apoptosis) (SU-DHL-2): 95.98% | EC50 (U-2932; Homo sapiens, U2932): 567 nM | IC50 (U-2932; Homo sapiens, U2932, read-out: IC50 (% Viable Cells)): 36 nM | AUC (% Viable Cells) (U-2932): 163.7 | AUC (Apoptosis) (U-2932): 212.8 | Emax (% Viable Cells) (U-2932): 12.8% | Ymax (Apoptosis) (U-2932): 25.81% | EC50 (Rec-1; Homo sapiens, Rec1): 9.26 nM | IC50 (Rec-1; Homo sapiens, Rec1, read-out: IC50 (% Viable Cells)): 32 nM | AUC (% Viable Cells) (Rec-1): 281.8 | AUC (Apoptosis) (Rec-1): 508.5 | Emax (% Viable Cells) (Rec-1): 21.04% | Ymax (Apoptosis) (Rec-1): 57.27% | AUC (% Viable Cells) (ULA): 0.5518 | AUC (Apoptosis) (ULA): 995.3 | EC50 (ULA): 1.79 nM | Emax (% Viable Cells) (ULA): 0.02523% | Ymax (Apoptosis) (ULA): 99.76% | IC50 (ULA; [2]): 0.99 nM | EC50 (SU-DHL-16; Homo sapiens): 662 nM | IC50 (SU-DHL-16; [1]): 154 nM | AUC (% Viable Cells) (SU-DHL-16): 149.7 | AUC (Apoptosis) (SU-DHL-16): 492.6 | Emax (% Viable Cells) (SU-DHL-16): 7.137% | Ymax (Apoptosis) (SU-DHL-16): 60.79% | EC50 (OCI-LY18; Homo sapiens): 2.98 nM | IC50 (OCI-LY18; [1]): 0.944 nM | AUC (% Viable Cells) (OCI-LY18): 1.965 | AUC (Apoptosis) (OCI-LY18): 965.2 | Emax (% Viable Cells) (OCI-LY18): 0.05973% | Ymax (Apoptosis) (OCI-LY18): 97.44%
